Test results from US9421193B2, “Benzothiazole derivatives and a use thereof for the treatment of cancer” (Korea Institute of Radiological & Medical Sciences, priority 2014, dated 2016).

How the values were obtained:
[1] = system: non-small cell lung cancer cell strain H460; experiment: Trypan blue live cell count (cell viability); format: cell-based, human; conditions: FIGS. 3A and 3B, PB12 at 150 μM
Method: Whether the cancer cell growth inhibitory effects of the compounds PB01 and PB11 on the non-small cell lung cancer cell strains is associated with apoptosis was investigated. The cell growth inhibitory effects were evaluated by a trypan blue assay, and cell shapes were observed using an inverted microscope. The shapes of cell nuclei were observed via Hoeschst 33342 staining. Degrees of inducing apoptosis were quantized by flow cytometry (fluorescent activated cell sorting (FACS)).
After about 5×10^3 cells per well of each of the human non-small cell lung cancer cell strains A549 and H460 were portioned into a 96-well plate, about 10 uM to about 50 uM of the compounds PB01 or PB11 in 200 ul of culture solution were added into the wells, and incubated for about 8 to 72 hours. Cells were collected from the incubation product, and centrifuged at about 2,000 rpm for 5 minutes. After removing a supernatant, the remaining cells were mixed with 1 mL of phosphate-buffered saline (PBS) to obtain a cell suspension, which was then mixed with an equal amount of 0.5% trypan blue (Gibco BRL), followed by treatment for about 1 minute. The number of live cells was counted using a phase-contrast) microscope. The live cell counting was repeated three times, and an average live cell count and a standard error were calculated using a Microsoft Excel program. Cell viability graphs with respect to compound concentration and incubation time were obtained. The same experiment was performed with 50 μM of the compound PB01, PB11 50 μM of the compound PB11, or 150 μM of the compound PB12 150 μM, and cell viability graphs with respect to compound concentration and incubation time were obtained.

[2] = system: non-small cell lung cancer cell strain H460; experiment: Apoptosis ratio, Annexin V flow cytometry; format: cell-based, human; conditions: about 40 hours, 50 μM PB01, 50 μM PB11, 150 μM PB12, FIGS. 9A and 9B
Method: About 5×10^5 cells per well of each of the non-small cell lung cancer cell strains A549 and H460 were portioned into a 6-well plate and then incubated with the compounds PB01 or PB11 for about 40 hours in the same manner as described above. A cell layer was washed with PBS and then treated with trypsin-EDTA solution to isolate cells. The isolated cells were collected and stained with an Annexin V Flous Staining kit (available Roche Applied Science, Penzberg, Germany) in a dark condition for about 30 minutes. The stained cells were analyzed by flow cytometry using a FACScan™ (available from Becton Dicknson) to count the number of dead cells and then calculate an apoptosis ratio. The same experiment was performed with 50 μM of PB01, 50 μM of PB11, or 150 μM of PB12 in the same manner as described above. The graphs of cell viability with respect to compound concentration and incubation time obtained based on the experimental results are shown in FIGS. 9A and 9B.

## Cc1noc(C)c1CSc1nc2ccc(NC(=O)C3CCC(O)CC3)cc2s1 (centres unmarked) [PB12]
[1]
  cancer cell apoptosis effect with respect to concentration and incubation time: improved cancer cell apoptosis effects with increases in concentration and incubation time
[2]
  apoptosis induction (Annexin V): kill the non-small cell lung cancer cells by inducing apoptosis
